Laboratory results: paper PMC9144829, “Histone Deacetylase Inhibitory Activity and Antiproliferative Potential of New [6]-Shogaol Derivatives” (Molecules, 2022)
Read-outs that look alike come from different tables or passages of the source.

Experiments:
[1] = target: histone deacetylase; details: Figure 1; read-out: IC50 (known histone deacetylase inhibitors); cited from earlier work
[2] = test system: Vero cells; assay: MTT assay, non-cancer Vero cells; type: cell-based; details: Chlorocebus sabaeus, read-out: IC50 Values (Mean ± SD; n = 3)
Protocol: (§1) The MTT reduction assay was performed with non-cancer (Vero), human cervical cancer (HeLa), human colon cancer (HCT116), human breast adenocarcinoma cancer (MCF-7), and cholangiocarcinoma (H-69 […], KKU-100 and KKU-M213B) cell lines according to the previously described method. Briefly, cells were seeded in 96-well plates. The next day, cells were exposed to the selected compounds at various concentrations and incubated for 24, 48 and 72 h. After incubation, the culture medium was exchanged with 110 µL of MTT (0.5 mg/mL in PBS medium) and further incubated for 2 h. The amount of MTT formazan product was determined after dissolving in DMSO by measuring its absorbance with a microplate reader (Bio-Rad Laboratories, Hercules, CA, USA) at a test wavelength of 550 nm and a reference wavelength of 655 nm. The cell viability was expressed as a percentage of the viable cells of control culture conditions, and the IC50 values of each group were calculated.

[3] = test system: cholangiocarcinoma KKU-M213B cells; assay: MTT assay, KKU-M213B cells; type: cell-based, human; details: Homo sapiens, read-out: IC50 Values (Mean ± SD; n = 3)
Protocol: as §1

[4] = test system: human cervical cancer (HeLa) cells; assay: MTT assay, HeLa cells; type: cell-based; details: for IC50: Homo sapiens, read-out: IC50 Values (Mean ± SD; n = 3), HeLa cells
Protocol: as §1

[5] = test system: HDAC enzymes (HeLa nuclear extract, mixed-HDAC isoforms); assay: Fluor-de-Lys HDAC activity assay kit, HeLa nuclear extract as source of HDAC enzymes; type: biochemical, human; details: compounds at 100 µM
Protocol: The in vitro HDAC inhibitions of the obtained compounds were carried out with the assay kit containing mixed-HDAC isoforms. […] Therefore, the results were not fully related. However, compounds with good binding affinities should have the potential to be specific HDAC inhibitors for each isoform.
The semi-synthetic derivatives were evaluated for their ability to inhibit HDAC enzymes. Inhibition of HDAC activity in vitro was assessed using the Fluor-de-Lys HDAC activity assay kit (Biomol, Enzo Life Sciences International, Inc., Farmingdale, NY, USA). The HeLa nuclear extract provided with the kit was used as a source of HDAC enzymes for the in vitro study. TSA was used as the positive control. The HeLa nuclear extract, substrate, buffer and inhibitors were incubated. Deacetylation of the substrate was performed next by adding a developer to generate a fluorophore. The spectra Max Gemini XPS microplate spectrofluorometer (Molecular Devices, San Jose, CA, USA) was used to measure fluorescence signal with excitation at 360 nm and emission at 460 nm. A decrease in fluorescence signal indicated an inhibition of HDAC activity. Trichostatin A (TSA) was used as a positive control. All experiments were carried out in triplicate.

[6] = test system: human colon cancer (HCT116) cells; assay: MTT assay, HCT116 cells; type: cell-based; details: Homo sapiens, HCT-116, read-out: IC50 Values (Mean ± SD; n = 3)
Protocol: as §1

[7] = test system: human breast adenocarcinoma cancer (MCF-7) cells; assay: MTT assay, MCF-7 cells; type: cell-based; details: Homo sapiens, MCF7, read-out: IC50 Values (Mean ± SD; n = 3)
Protocol: as §1

[8] = test system: H-69 cells; assay: MTT assay, H-69 cells; type: cell-based; details: Homo sapiens, NCI-H69, read-out: IC50 Values (Mean ± SD; n = 3)
Protocol: as §1

[9] = test system: cholangiocarcinoma KKU-100 cells; assay: MTT assay, KKU-100 cells; type: cell-based, human; details: Homo sapiens, KKU100, read-out: IC50 Values (Mean ± SD; n = 3)
Protocol: as §1

| SMILES | IC50 [1] | IC50 ([2]; 24 h) | IC50 ([2]; 48 h) | IC50 ([2]; 72 h) | IC50 ([3]; 24 h) | IC50 ([3]; 48 h) | IC50 ([3]; 72 h) | IC50 ([4]; 24 h) | IC50 ([4]; 48 h) | IC50 ([4]; 72 h) | %HDAC Inhibition [5] | IC50 ([6]; 24 h) | IC50 ([6]; 48 h) | IC50 ([6]; 72 h) | IC50 ([7]; 24 h) | IC50 ([7]; 48 h) | IC50 ([7]; 72 h) | IC50 ([8]; 24 h) | IC50 ([8]; 48 h) | IC50 ([8]; 72 h) | further results |
| --- | --- | --- | --- | --- | --- | --- | --- | --- | --- | --- | --- | --- | --- | --- | --- | --- | --- | --- | --- | --- | --- |
| COc1cc(CNC(=O)CCCCC(O)CC(C)C)ccc1O (stereo not drawn) [Hydroxycapsaicin (2), hydroxycapsaicin] | 72 µM | – | – | – | – | – | – | – | – | – | – | – | – | – | – | – | – | – | – | – | – |
| CCCCC/C=C/C(=O)CCc1ccc(O)c(OC)c1 [Compound 4, [6]-shogaol] | 50 µM | 37.6 ± 0.94 µM | 36 ± 0.95 µM | 23.3 ± 0.24 µM | 17.95 ± 0.05 µM | 12.9 ± 0.47 µM | 9.91 ± 0.17 µM | 16.9 ± 0.8 µM | 9.26 ± 0.46 µM | 8.1 ± 0.29 µM | 86% | 17.3 ± 0.57 µM | 12.4 ± 0.15 µM | 12.3 ± 0.13 µM | 24.8 ± 0.66 µM | 16.54 ± 0.15 µM | 13.39 ± 0.07 µM | 38.4 ± 0.84 µM | 32 ± 0.55 µM | 24.78 ± 0.24 µM | selectivity towards HeLa cells than non-cancer cells ([4]; HeLa versus non-cancer cells): 3 fold; IC50 ([9]; 24 h): 27.64 ± 0.26 µM; IC50 ([9]; 48 h): 18.9 ± 0.48 µM; IC50 ([9]; 72 h): 17.04 ± 0.04 µM |
| CCCCC[C@H](O)CC(=O)CCc1ccc(O)c(OC)c1 [[6]-Gingerol (3), [6]-gingerol] | 61 µM | – | – | – | – | – | – | – | – | – | – | – | – | – | – | – | – | – | – | – | – |
| CCCCCC1CC(CCc2ccc(O)c(OC)c2)=NN1c1ccc([N+](=O)[O-])cc1 (stereo not drawn) [Compound 5j, 2-methoxy-4-(2-(1-(4-nitrophenyl)-5-pentyl-4,5-dihydro-1H-pyrazol-3-yl)ethyl)phe nol] | – | 41.6 ± 2.99 µM | 32.2 ± 1.31 µM | 26.1 ± 0.47 µM | 23.9 ± 0.85 µM | 19.3 ± 0.9 µM | 13.8 ± 0.16 µM | 26.8 ± 0.62 µM | 11.6 ± 0.6 µM | 8.09 ± 0.03 µM | 85% | 42.7 ± 2.23 µM | 10.2 ± 0.43 µM | 9.65 ± 0.17 µM | 27.9 ± 0.86 µM | 13.8 ± 0.56 µM | 11.6 ± 0.44 µM | 44.1 ± 0.89 µM | 34.6 ± 0.41 µM | 26.4 ± 0.43 µM | IC50 ([9]; 24 h): 27.2 ± 0.59 µM; IC50 ([9]; 48 h): 22.4 ± 0.65 µM; IC50 ([9]; 72 h): 17.45 ± 0.14 µM |
